Measured values reported in patent US7855309B2, “Pesticide benzyloxy- and phenetyl-substituted phenyl-amidine derivatives” (Bayer CropScience AG, priority 2005, dated 2010).

assay: logP by HPLC on reversed-phase column (EEC Directive 79/831 Annex V.A8); assay type: physicochemical; conditions: HPLC, C18, 40° C., 0.1% aqueous formic acid and acetonitrile
Description: Temperature: 40° C.; Mobile phases: 0.1% aqueous formic acid and acetonitrile; linear gradient from 10% acetonitrile to 90% acetonitrile.
Calibration was carried out using unbranched alkan-2-ones (comprising 3 to 16 carbon atoms) with known logP values (determination of the logP values by the retention times using linear interpolation between two successive alkanones).

`Cc1cc(OC(C)c2ccc(F)cc2)c(C)cc1N=CN1CCCCC1` (racemic) [Compound 93] and `Cc1cc(OC(C)c2ccc(Cl)cc2)c(C)cc1N=CN1CCCCC1` (racemic) [Compound 132] are within 0.2 log units of each other in “log P” value: 2.18 for the first, 2.36 for the second.

`Cc1cc(OC(C)c2ccccc2Cl)c(C)cc1N=CN1CCCCC1` (racemic) [Compound 130] and `Cc1cc(OC(C)c2cccc(Cl)c2)c(C)cc1N=CN1CCCCC1` (racemic) [Compound 131] are the same in “log P” value: 2.36 for the first, 2.36 for the second.

`CCN(C)C=Nc1cc(C)c(OCc2ccc(F)cc2)cc1C` [Compound 2] and `CCN(C)C=Nc1cc(C)c(OCc2ccc(C)cc2)cc1C` [Compound 32] are within 0.2 log units of each other in “log P” value: 1.99 for the first, 2.1 for the second.

Going from `CCN(C)C=Nc1cc(C)c(OCc2cc3c(cc2Cl)OCO3)cc1C` [Compound 5] to `CCN(C)C=Nc1cc(C)c(OCc2cc(C)c(C)cc2Cl)cc1C` [Compound 47], the “log P” value rises from 2.05 to 2.42.

Compared with `CCN(C)C=Nc1cc(C)c(OCc2ccc(C(C)(C)C)cc2)cc1C` [Compound 8], `CCN(C)C=Nc1cc(C)c(OCc2ccc(Br)cc2)cc1C` [Compound 70] is lower in “log P” value: 2.67 for the first, 2.21 for the second.

`CCN(C)C=Nc1cc(C)c(OCc2ccc(C#N)cc2)cc1C` [Compound 10] and `CCN(C)C=Nc1cc(C)c(OCc2cccc(C#N)c2)cc1C` [Compound 74] are within 0.2 log units of each other in “log P” value: 1.7 for the first, 1.83 for the second.

`CCN(C)C=Nc1cc(C)c(OCc2ccccc2F)cc1C` [Compound 11] and `CCN(C)C=Nc1cc(C)c(OCc2ccccc2Cl)cc1C` [Compound 33] are within 0.2 log units of each other in “log P” value: 1.94 for the first, 2.08 for the second.

`CCN(C)C=Nc1cc(C)c(OCc2cccc(C=NOC)c2)cc1C` [Compound 12] and `C=Cc1cccc(COc2cc(C)c(N=CN(C)CC)cc2C)c1` [Compound 50] are within 0.2 log units of each other in “log P” value: 2.07 for the first, 2.16 for the second.

`CCN(C)C=Nc1cc(C)c(OCc2ccc(F)c(F)c2)cc1C` [Compound 15] and `CCN(C)C=Nc1cc(C)c(OCc2ccc(F)c(OC)c2)cc1C` [Compound 22] are within 0.2 log units of each other in “log P” value: 2.02 for the first, 1.92 for the second.

`CCN(C)C=Nc1cc(C)c(OCc2cccc(OC(F)(F)F)c2)cc1C` [Compound 17] and `CCN(C)C=Nc1cc(C)c(OCc2ccc(OC(F)(F)F)cc2)cc1C` [Compound 23] are within 0.2 log units of each other in “log P” value: 2.33 for the first, 2.38 for the second.

`CCN(C)C=Nc1cc(C)c(OCc2cc(C(F)(F)F)cc(C(F)(F)F)c2)cc1C` [Compound 21] and `CCN(C)C=Nc1cc(C)c(OCc2ccc(Cl)c(C(F)(F)F)c2)cc1C` [Compound 28] are within 0.2 log units of each other in “log P” value: 2.62 for the first, 2.47 for the second.

`CCN(C)C=Nc1cc(C)c(OCc2ccc(OC(F)F)cc2)cc1C` [Compound 24] and `CCN(C)C=Nc1cc(C)c(OCc2ccc(OC)cc2)cc1C` [Compound 78] are within 0.2 log units of each other in “log P” value: 2.06 for the first, 1.92 for the second.

`CCN(C)C=Nc1cc(C)c(OCc2ccccc2OC(F)F)cc1C` [Compound 26] and `CCN(C)C=Nc1cc(C)c(OCc2ccccc2C)cc1C` [Compound 66] are within 0.2 log units of each other in “log P” value: 2.03 for the first, 2.06 for the second.

`CCN(C)C=Nc1cc(C)c(OCc2ccc3nsnc3c2)cc1C` [Compound 27] and `CCN(C)C=Nc1cc(C)c(OCc2cccc3nsnc23)cc1C` [Compound 51] are within 0.2 log units of each other in “log P” value: 1.86 for the first, 1.92 for the second.

`CCN(C)C=Nc1cc(C)c(OCc2ccccc2C(F)(F)F)cc1C` [Compound 34] and `CCN(C)C=Nc1cc(C)c(OCc2ccccc2Br)cc1C` [Compound 67] are within 0.2 log units of each other in “log P” value: 2.14 for the first, 2.13 for the second.

`CCN(C)C=Nc1cc(C)c(CCc2cccc(Cl)c2)cc1C` [Compound 36] and `CCN(C)C=Nc1cc(C)c(CCc2ccc(Cl)cc2)cc1C` [Compound 40] are within 0.2 log units of each other in “log P” value: 2.2 for the first, 2.27 for the second.

`CCN(C)C=Nc1cc(C)c(CCc2ccccc2Cl)cc1C` [Compound 37] and `CCN(C)C=Nc1cc(C)c(CCc2ccccc2C)cc1C` [Compound 38] are within 0.2 log units of each other in “log P” value: 2.26 for the first, 2.38 for the second.

`CCN(C)C=Nc1cc(C)c(CCc2ccc(OC)cc2)cc1C` [Compound 39] and `CCN(C)C=Nc1cc(C)c(CCc2ccc(C)cc2)cc1C` [Compound 41] are within 0.2 log units of each other in “log P” value: 2.04 for the first, 2.23 for the second.

Going from `CCN(C)C=Nc1cc(C)c(CCc2ccc(F)cc2)cc1C` [Compound 42] to `CCN(C)C=Nc1cc(C)c(CCc2ccc(C(F)(F)F)cc2)cc1C` [Compound 46], the “log P” value rises from 2.05 to 2.45.

`CCN(C)C=Nc1cc(C)c(CCc2cccc(C(F)(F)F)c2)cc1C` [Compound 43] and `CCN(C)C=Nc1cc(C)c(CCc2ccccc2C(F)(F)F)cc1C` [Compound 45] are within 0.2 log units of each other in “log P” value: 2.41 for the first, 2.42 for the second.

`CCN(C)C=Nc1cc(C)c(OCc2c(F)cccc2F)cc1C` [Compound 48] and `CCN(C)C=Nc1cc(C)c(OCc2cc(F)ccc2F)cc1C` [Compound 59] are within 0.2 log units of each other in “log P” value: 1.94 for the first, 1.99 for the second.

First: CCN(C)C=Nc1cc(C)c(OCc2ccc(C(=O)OC)cc2)cc1C [Compound 53]
Second: CCN(C)C=Nc1cc(C)c(OCc2ccc(SC)cc2)cc1C [Compound 84]
The “log P” value of the first is lower: 1.9 for the first, 2.16 for the second.

Going from `CCN(C)C=Nc1cc(C)c(OCc2cccc(C(=O)OC(C)(C)C)c2)cc1C` [Compound 54] to `CCN(C)C=Nc1cc(C)c(OCc2cccc(C)c2)cc1C` [Compound 57], the “log P” value falls from 2.42 to 2.11.

`CCN(C)C=Nc1cc(C)c(OCc2ccc(Cl)cc2Cl)cc1C` [Compound 55] and `CCN(C)C=Nc1cc(C)c(OCc2cccc(C)c2Cl)cc1C` [Compound 71] are within 0.2 log units of each other in “log P” value: 2.33 for the first, 2.29 for the second.

Going from `CCN(C)C=Nc1cc(C)c(OCc2ccccc2C#N)cc1C` [Compound 58] to `CCN(C)C=Nc1cc(C)c(OCc2ccccc2I)cc1C` [Compound 87], the “log P” value rises from 1.78 to 2.29.

`CCN(C)C=Nc1cc(C)c(OCc2cc(C)cc(C)c2)cc1C` [Compound 60] and `CCN(C)C=Nc1cc(C)c(OCc2c(C)cc(C)cc2C)cc1C` [Compound 86] are within 0.2 log units of each other in “log P” value: 2.26 for the first, 2.42 for the second.

`CCN(C)C=Nc1cc(C)c(OCc2ccc3ccccc3c2)cc1C` [Compound 62] and `CCN(C)C=Nc1cc(C)c(OCc2cccc3ccccc23)cc1C` [Compound 76] are within 0.2 log units of each other in “log P” value: 2.29 for the first, 2.45 for the second.

`CCN(C)C=Nc1cc(C)c(OCc2cc(OC)c(OC)cc2Cl)cc1C` [Compound 63] and `COc1cc(Cl)c(COc2cc(C)c(N=CN3CCCCC3)cc2C)cc1OC` [Compound 102] are within 0.2 log units of each other in “log P” value: 1.99 for the first, 2.09 for the second.

Compared with `CCN(C)C=Nc1cc(C)c(OCc2ccc3c(c2)CCCC3)cc1C` [Compound 75], `CCN(C)C=Nc1cc(C)c(OCc2cccc(F)c2)cc1C` [Compound 80] is lower in “log P” value: 2.55 for the first, 1.99 for the second.

`CCN(C)C=Nc1cc(C)c(OCc2cccc(C)c2F)cc1C` [Compound 77] and `CCN(C)C=Nc1cc(C)c(OCc2cccc(C)c2C)cc1C` [Compound 89] are within 0.2 log units of each other in “log P” value: 2.16 for the first, 2.29 for the second.

`CCN(C)C=Nc1cc(C)c(OCc2ccc(OCc3ccccc3)cc2)cc1C` [Compound 79] and `CCN(C)C=Nc1cc(C)c(OCc2ccc(C(C)C)cc2)cc1C` [Compound 82] are the same in “log P” value: 2.51 for the first, 2.51 for the second.

First: CCN(C)C=Nc1cc(C)c(OCc2cccc(OC)c2)cc1C [Compound 81]
Second: CCN(C)C=Nc1cc(C)c(OCc2cccc(I)c2)cc1C [Compound 85]
The “log P” value of the first is lower: 1.97 for the first, 2.42 for the second.

First: CCN(C)C=Nc1cc(C)c(OCc2ccc(SC(F)(F)F)cc2)cc1C [Compound 83]
Second: Cc1cc(OCc2ccc(C(F)(F)F)cc2)c(C)cc1N=CN1CCCCC1 [Compound 109]
The “log P” value of the first is higher: 2.61 for the first, 2.33 for the second.

`Cc1cc(OCc2cc(Cl)cc(Cl)c2)c(C)cc1N=CN1CCCCC1` [Compound 90] and `Cc1cc(OCc2ccc(Cl)c(Cl)c2)c(C)cc1N=CN1CCCCC1` [Compound 107] are within 0.2 log units of each other in “log P” value: 2.51 for the first, 2.45 for the second.

`Cc1ccc(C)c(COc2cc(C)c(N=CN3CCCCC3)cc2C)c1` [Compound 91] and `Cc1ccc(COc2cc(C)c(N=CN3CCCCC3)cc2C)cc1C` [Compound 108] are within 0.2 log units of each other in “log P” value: 2.33 for the first, 2.36 for the second.

`Cc1cc(OCc2cc3c(cc2Cl)OCO3)c(C)cc1N=CN1CCCCC1` [Compound 92] and `Cc1cc(OCc2ccccc2Cl)c(C)cc1N=CN1CCCCC1` [Compound 106] are within 0.2 log units of each other in “log P” value: 2.16 for the first, 2.18 for the second.

`Cc1cc(OCc2cccc(Cl)c2)c(C)cc1N=CN1CCCCC1` [Compound 94] and `Cc1cc(OCc2ccc(Cl)cc2)c(C)cc1N=CN1CCCCC1` [Compound 105] are within 0.2 log units of each other in “log P” value: 2.21 for the first, 2.26 for the second.

First: Cc1cc(OCc2ccc(C(C)(C)C)cc2)c(C)cc1N=CN1CCCCC1 [Compound 95]
Second: Cc1cc(OCc2ccc(F)cc2)c(C)cc1N=CN1CCCCC1 [Compound 104]
The “log P” value of the first is higher: 2.64 for the first, 2.09 for the second.

`Cc1cc(OCc2cccc(C(F)(F)F)c2)c(C)cc1N=CN1CCCCC1` [Compound 96] and `Cc1cc(OCc2ccc(F)c(F)c2)c(C)cc1N=CN1CCCCC1` [Compound 110] are within 0.2 log units of each other in “log P” value: 2.29 for the first, 2.13 for the second.

`Cc1cc(OCc2cc(F)ccc2F)c(C)cc1N=CN1CCCCC1` [Compound 97] and `Cc1cc(OCc2ccccc2F)c(C)cc1N=CN1CCCCC1` [Compound 100] are the same in “log P” value: 2.09 for the first, 2.09 for the second.

Going from `Cc1cc(OCc2ccc(C#N)cc2)c(C)cc1N=CN1CCCCC1` [Compound 98] to `CON=Cc1ccc(COc2cc(C)c(N=CN3CCCCC3)cc2C)cc1` [Compound 103], the “log P” value rises from 1.94 to 2.21.

First: Cc1cc(C)cc(COc2cc(C)c(N=CN3CCCCC3)cc2C)c1 [Compound 99]
Second: Cc1cc(OCc2c(F)cccc2Cl)c(C)cc1N=CN1CCCCC1 [Compound 101]
The “log P” value of the first is higher: 2.42 for the first, 2.16 for the second.

`Cc1cc(OCc2ccccc2OC(F)(F)F)c(C)cc1N=CN1CCCCC1` [Compound 111] and `Cc1cc(OCc2ccccc2SC(F)(F)F)c(C)cc1N=CN1CCCCC1` [Compound 112] are within 0.2 log units of each other in “log P” value: 2.33 for the first, 2.48 for the second.

same assay, conditions: reversed-phase HPLC column (C18), pH 2.3; read-out: log P (pH 2.3)

`CCN(C)/C=N/c1cc(C)c(/C=C/c2ccccc2F)cc1C` (racemic) [Intermediate (VII-1)] and `CCN(C)/C=N/c1cc(C)c(CCc2ccccc2F)cc1C` [Compound 44, N-ethyl-N′-{4-[2-(2-fluorophenyl)ethyl]-2,5-dimethylphenyl}-N-methylimidoformamide] are within 0.2 log units of each other in chromatographic logP: 2.11 for the first, 2.23 for the second.

same assay, conditions: reversed-phase HPLC column (C18); HPLC, C18, 40° C., 0.1% aqueous formic acid and acetonitrile; read-out: log P

For `CCN(C)/C=N/c1cc(C)c(CCc2ccccc2F)cc1C` [Compound 44, N-ethyl-N′-{4-[2-(2-fluorophenyl)ethyl]-2,5-dimethylphenyl}-N-methylimidoformamide], the chromatographic logP was 2.23.
